Reference: patent publication US20250114369A1, “COMPOUNDS AND METHODS FOR TREATMENT OF VIRAL INFECTIONS” (Gilead Sciences, Inc., priority 2023, published 2025)

What was measured:
in vitro [1] = assay type: cell-based; conditions: human
Procedure: Cytotoxicity of the compounds was determined in uninfected cells using the cell viability reagent in a similar fashion as described before for other cell types (Cihlar et al., Antimicrob Agents Chemother. 2008, 52(2):655-65). HEp-2 (1.5×10^3 cells/well) and MT-4 (2×10^3 cells/well) cells were plated in 384-well plates and incubated with the appropriate medium containing 3-fold serially diluted compound ranging from 15 nM to 100,000 nM. Cells were cultured for 4-5 days at 37° C. Following the incubation, the cells were allowed to equilibrate to 25° C., and cell viability was determined by adding Cell-Titer Glo viability reagent. The mixture was incubated for 10 min, and the luminescence signal was quantified using an Envision plate reader. Untreated cell and cells treated at 2 μM puromycin (Sigma, St. Louis, MO) serve as […] cell viability control, respectively. The percent of cell viability was calculated for each tested compound concentration relative to the 0% and 100% controls and the CC50 value was determined by non-linear regression as a compound concentration reducing the cell viability by […].

[2] = test system: Caco-2 cells (clone C2BBel); test: CACO-2 permeability; assay type: in vitro ADME; conditions: donor pH 6.5, receiver pH 7.4; for DM Caco2 A to B: forward (A to B); for DM Caco2 B to A: reverse (B to A)
Procedure: Pre-plated Caco-2 cells (clone C2BBel) were obtained from Sigma-Aldrich, Inc. (Atlanta, GA). Cell monolayers were grown to confluence on collagen-coated, microporous, polycarbonate membranes in 24-well transwell plates for 21 days. The permeability assay buffer in donor wells was Hanks' balanced salt solution (HBSS) containing 10 mM HEPES and 15 mM glucose at a pH of 6.5 containing 200 μM BNPP. The receiver wells used HBSS buffer containing 10 mM HEPES and 15 mM glucose at a pH of 7.4 and supplemented with 1% BSA. After an initial equilibration with transport buffer, TEER values were read to test membrane integrity. The experiment was started by the addition of buffers containing test compounds, 200 μl and 1000 μl in the apical and basolateral chamber, respectively. At 0- and 2-hour post dose, 10 μL was sampled from donor compartment and was immediately diluted in 190 μL of 20% methanol. At 1 and 2 hours post dose, 100 μl of solution was taken from the receiver compartments and was immediately diluted in 100 μl of 20% methanol. Removed buffer was replaced with fresh buffer and a correction was applied to all calculations for the removed material. Each compound was tested in 2 separate replicate wells for each condition. All samples were then extracted with 400 μl 100% acetonitrile with internal standard to precipitate protein. Cells were dosed on the apical or basolateral side to determine forward (A to B) and reverse (B to A) permeability. To test for non-specific binding and compound instability, the total amount of drug was quantitated at the end of the experiment and compared to the material present in the original dosing solution as a percent recovery. Formation of the parent compound (GS-441524; Reference Compound A) was monitored in assay wells dosed with the prodrug. Samples were analyzed by LC-MS/MS.

[3] = test system: Respiratory syncytial virus recombinant with luciferase (RSV-Luc5); test: microbe, parasite or virus in culture; assay type: cell-based; conditions: human respiratory syncytial virus, NHBE, 72 h, read-out: RSV NHBE EC50 (nM)
in vitro [4] = assay type: in vitro ADME; conditions: human, s9, pH 7.4
Procedure: Duplicate aliquots of test compound or positive control substrate (GS-7340) were added to PMSF-free Intestinal S9 fractions diluted with 100 mM phosphate buffered saline, pH 7.4, to obtain a protein concentration of 1.0 mg/mL. The S9 metabolic reactions were initiated by the addition of the substrates to the S9 reaction mixture to a final concentration of 2 μM. At 0, 10, 20, 30, 60 and 120 min, 25 μL aliquots of the reaction mixture were transferred to plates containing 225 μl of IS/Q solution. After quenching, the plates were centrifuged at 3000×g for 30 minutes, and 150 μL aliquots of each supernatant were diluted with 150 μL water. Aliquots (10 μL) of the diluted supernatant were analyzed on a Thermo Q-Exactive mass spectrometer as described below. Quantification of test compounds and controls was performed by analyte/internal standard peak area ratio (PAR) values measured on a Thermo Q-Exactive mass spectrometer coupled to a Dionex UltiMate 3000 HPLC with a Leap Technologies HTC PAL autosampler. The column used was a Thermo Hypersil GOLD (1.9 μm particle size, 2.1×50 mm). Mobile phase A consisted of […] formic acid in water. Mobile phase B consisted of 0.1% (v/v) formic acid in acetonitrile. Elution of analytes was achieved by a series of linear gradients of acetonitrile in water containing 0.1% (v/v) formic acid. The mass spectrometer was calibrated on a weekly basis and mass tolerance of 5 ppm was used.

[5] = test system: SARS Coronavirus 2 recombinant with NanoLuc (SARS-CoV2-NLuc); test: organism not typed; assay type: cell-based; conditions: 48 h
[6] = assay type: in vitro ADME; conditions: 2 μM
Procedure: Duplicate aliquots of plasma were warmed to 37° C. and the metabolic reactions initiated by the addition of test compound (6 μL of 0.1 mM DMSO stock) or plasma stability standard (GS-7340) to obtain a final substrate concentration of 2 μM. At 0.05, 0.5, 1, 2, 3 and 4 hr, 25 μL aliquots of the reaction mixture were transferred to plates containing 225 μl of IS/Q quenching solution. After quenching, the plates were centrifuged at 3000×g for 30 minutes, and 150 μL supernatant was diluted with 150 μL water. Aliquots (10 μL) of the diluted supernatant were analyzed on a Thermo Q-Exactive mass spectrometer as described below. Quantification of test compounds and controls was performed by analyte/internal standard peak area ratio (PAR) values measured on a Thermo Q-Exactive mass spectrometer coupled to a Dionex UltiMate 3000 HPLC with a Leap Technologies HTC PAL autosampler. The column used was a Thermo Hypersil GOLD (1.9 μm particle size, 2.1×50 mm). Mobile phase A consisted of […] formic acid in water. Mobile phase B consisted of 0.1% (v/v) formic acid in acetonitrile. Elution of analytes was achieved by a series of linear gradients of acetonitrile in water containing 0.1% (v/v) formic acid. The mass spectrometer was calibrated on a weekly basis and mass tolerance of 5 ppm was used.

in vitro [7] = assay type: in vitro ADME; conditions: human, s9, pH 7.4; remark: listed apart in the source
Procedure: Duplicate aliquots of test compound or positive control substrate (GS-7340) were added to S9 stock diluted with 100 mM potassium phosphate buffer, pH 7.4, to obtain a protein concentration of 2.4 mg/mL. The S9 metabolic reactions were initiated by the addition of the substrates to the S9 reaction mixture to a final concentration of 2 μM. At 2, 12, 25, 45, 65 and 90 min, 25 μL aliquots of the reaction mixture were transferred to plates containing 225 μl of IS/Q solution. After quenching, the plates were centrifuged at 3000×g for 30 minutes, and 150 μL aliquots of each supernatant were diluted with 150 μL water. Aliquots (10 μL) of the diluted supernatant were analyzed on a Thermo Q-Exactive mass spectrometer as described below. Quantification of test compounds and controls was performed by analyte/internal standard peak area ratio (PAR) values measured on a Thermo Q-Exactive mass spectrometer coupled to a Dionex UltiMate 3000 HPLC with a Leap Technologies HTC PAL autosampler. The column used was a Thermo Hypersil GOLD (1.9 μm particle size, 2.1×50 mm). Mobile phase A consisted of […] formic acid in water. Mobile phase B consisted of 0.1% (v/v) formic acid in acetonitrile. Elution of analytes was achieved by a series of linear gradients of acetonitrile in water containing 0.1% (v/v) formic acid. The mass spectrometer was calibrated on a weekly basis and mass tolerance of 5 ppm was used.
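Wherever CC50 is given: uninfected MT-4 cells over 4-5 days by CellTiter-Glo.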

Compound | CC50 (in vitro [1]) [µM] | DM Caco2 A to B [2] | DM Caco2 B to A [2] | EC50 [3] [nM] | half-life at 2 μM (in vitro [4]) [min] | EC50 [5] [µM] | STA Human Plasma 37 [6] | half-life at 2 μM (in vitro [7]) [min]
CCSC(=O)OC[C@H]1O[C@@](C#N)(c2ccc3c(N)ncnn23)[C@H](O)[C@@H]1O [Compound 15, [(2R,3S,4R,5R)-5-(4-aminopyrrolo[2,1-f][1,2,4]triazin-7-yl)-5-cyano-3,4-dihydroxy-tetrahydrofuran-2-yl]methyl ethylsulfanylformate] | > 50 | 1.51 | 7.08 | 5650 | 16.4 | 19.7 | 451.78 | –
CC(C)(C)SC(=O)OC[C@H]1O[C@@](C#N)(c2ccc3c(N)ncnn23)[C@H](O)[C@@H]1O [Compound 17, [(2R,3S,4R,5R)-5-(4-aminopyrrolo[2,1-f][1,2,4]triazin-7-yl)-5-cyano-3,4-dihydroxy-tetrahydrofuran-2-yl]methyl tert-butylsulfanylformate] | 49.8 | 3.05 | 15.63 | 8110 | 44.5 | ≥ 50 | 1343.5 | –
N#C[C@@]1(c2ccc3c(N)ncnn23)O[C@H](COC(=O)SC2CCCC2)[C@@H](O)[C@H]1O [Compound 16, [(2R,3S,4R,5R)-5-(4-aminopyrrolo[2,1-f][1,2,4]triazin-7-yl)-5-cyano-3,4-dihydroxy-tetrahydrofuran-2-yl]methyl cyclopentylsulfanylformate] | 49.9 | – | – | 2810 | 3.4 | 8.75 | – | 6.2
N#C[C@@]1(c2ccc3c(N)ncnn23)O[C@H](COC(=O)N2CCCO2)[C@@H](O)[C@H]1O [Compound 12, [(2R,3S,4R,5R)-5-(4-aminopyrrolo[2,1-f][1,2,4]triazin-7-yl)-5-cyano-3,4-dihydroxy-tetrahydrofuran-2-yl]methyl isoxazolidine-2-carboxylate] | > 50 | 0.08 | 0.36 | 35300 | 85 | > 50 | 938.47 | –
CCCSC(=O)OC[C@H]1O[C@@](C#N)(c2ccc3c(N)ncnn23)[C@H](O)[C@@H]1O [Compound 14, [(2R,3S,4R,5R)-5-(4-aminopyrrolo[2,1-f][1,2,4]triazin-7-yl)-5-cyano-3,4-dihydroxy-tetrahydrofuran-2-yl]methyl propylsulfanylformate] | > 50 | 2.06 | 9.1 | 2620 | 5.12 | 11.7 | 495.99 | –
N#C[C@@]1(c2ccc3c(N)ncnn23)O[C@H](COC(=O)N2C(=O)OC[C@@H]2Cc2ccccc2)[C@@H](O)[C@H]1O [Compound 4, [(2R,3S,4R,5R)-5-(4-aminopyrrolo[2,1-f][1,2,4]triazin-7-yl)-5-cyano-3,4-dihydroxy-tetrahydrofuran-2-yl]methyl (4S)-4-benzyl-2-oxo-oxazolidine-3-carboxylate] | > 50 | 0.12 | 0.94 | > 50000 | ≥ 789 | > 50 | 253.23 | –
CC(C)[C@H](NC(=O)OC[C@H]1O[C@@](C#N)(c2ccc3c(N)ncnn23)[C@H](O)[C@@H]1O)C(=O)O [Compound 6, ((((2R,3S,4R,5R)-5-(4-aminopyrrolo[2,1-f][1,2,4]triazin-7-yl)-5-cyano-3,4-dihydroxytetrahydrofuran-2-yl)methoxy)carbonyl)-L-valine] | > 50 | 0.05 | 0.07 | > 50000 | ≥ 792 | > 50 | 1584 | –
CC(=O)O[C@H]1[C@@H](OC(C)=O)[C@](C#N)(c2ccc3c(N)ncnn23)O[C@@H]1COC(=O)NC(C)C [Compound 18, [(2R,3R,4R,5R)-4-acetoxy-5-(4-aminopyrrolo[2,1-f][1,2,4]triazin-7-yl)-5-cyano-2-(isopropylcarbamoyloxymethyl)tetrahydrofuran-3-yl]acetate] | > 50 | 0.8 | 6.91 | > 50000 | 0.581 | > 50 | 16.014 | –
N#C[C@@]1(c2ccc3c(N)ncnn23)O[C@H](COC(=O)N2CCS(=O)(=O)CC2)[C@@H](O)[C@H]1O [Compound 11, [(2R,3S,4R,5R)-5-(4-aminopyrrolo[2,1-f][1,2,4]triazin-7-yl)-5-cyano-3,4-dihydroxy-tetrahydrofuran-2-yl]methyl 1,1-dioxo-1,4-thiazinane-4-carboxylate] | > 50 | 0.08 | 0.11 | > 50000 | 779 | > 50 | 1584 | –
